Data as given in article PMC10350927 (Journal of Medicinal Chemistry, 2023).
Substitutions are numbered along the chain they refer to. Counter-ions that a name gives are not always drawn. Marks after values point to notes of the source that are not given here.

What was measured:
[1] = molecular target: T1, mSUCNR1 (Mus musculus, UniProt Q99MT6); experiment: BRET competition binding using 22 as tracer, mSUCNR1; conditions: 1 μM 22, Kd = […]; highest unlabeled ligand 30 μΜ
T1 sequence (Q99MT6 1-317): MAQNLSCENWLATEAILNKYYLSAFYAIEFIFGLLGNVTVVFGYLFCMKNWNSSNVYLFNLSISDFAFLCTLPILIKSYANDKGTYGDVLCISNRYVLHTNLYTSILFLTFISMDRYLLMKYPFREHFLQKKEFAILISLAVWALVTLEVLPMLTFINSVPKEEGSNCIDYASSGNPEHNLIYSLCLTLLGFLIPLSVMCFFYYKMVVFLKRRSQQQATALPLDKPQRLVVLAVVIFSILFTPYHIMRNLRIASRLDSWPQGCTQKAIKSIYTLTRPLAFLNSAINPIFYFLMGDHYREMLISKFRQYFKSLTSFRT

[2] = molecular target: T1, mSUCNR1; experiment: cAMP assay, agonist potency at mSUCNR1; format: cell-based; design: expressed in transfected cells; host or cells: Flp-In T-REx 293; conditions: for cAMP mSUCNR1 pEC50: Flp-In T-REx 293 cells, mean ± SEM, minimum three independent experiments
[3] = molecular target: T2, hSUCNR1 (Homo sapiens, UniProt Q9BXA5); experiment: BRET competition binding using 22 as tracer, hSUCNR1; conditions: 3 μM 22, Kd = 990 nM; mean ± SEM, three experiments
T2 sequence (Q9BXA5 1-334): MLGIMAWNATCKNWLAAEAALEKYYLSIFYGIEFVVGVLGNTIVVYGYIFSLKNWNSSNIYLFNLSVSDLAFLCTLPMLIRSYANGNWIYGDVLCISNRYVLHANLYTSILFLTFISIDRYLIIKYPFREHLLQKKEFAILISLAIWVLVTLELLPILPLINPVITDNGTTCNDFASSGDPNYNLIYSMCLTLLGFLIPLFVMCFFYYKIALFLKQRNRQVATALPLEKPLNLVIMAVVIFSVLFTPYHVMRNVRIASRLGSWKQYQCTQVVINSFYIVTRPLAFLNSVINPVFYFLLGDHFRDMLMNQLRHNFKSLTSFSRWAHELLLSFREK

[4] = molecular target: T2, hSUCNR1; experiment: BRET competition binding using 46 as tracer, hSUCNR1; conditions: […] 46, Kd = 310 nM
[5] = molecular target: T3, hmSUCNR1 (Mus musculus, UniProt Q99MT6, G84W/K269N/N18E); experiment: BRET competition binding using 46 as tracer, hmSUCNR1
T3 sequence (Q99MT6 1-317 N18E/G84W/K269N): T1 sequence (Q99MT6 1-317) with N18E, G84W, K269N

[6] = molecular target: T3, hmSUCNR1; experiment: BRET competition binding using 22 as tracer, hmSUCNR1
[7] = molecular target: T2, hSUCNR1; experiment: cAMP assay, inhibition of succinate response at hSUCNR1; format: cell-based; design: expressed in transfected cells; host or cells: Flp-In T-REx 293; conditions: for cAMP hSUCNR1 pIC50: inhibition of […] succinate response, mean ± SEM

CCOc1ccc(-c2ccc(C(=O)N[C@@H](CC(=O)O)C(=O)O)o2)cc1 [Compound 2]
Competion binding using 22 mSUCNR1 pKi [1]: 6.2 ± 0.1
cAMP mSUCNR1 pEC50 [2]: 7.01 ± 0.04

O=C(O)C[C@H](NC(=O)c1cccc(-c2ccc(OC(F)(F)F)cc2)n1)C(=O)O [Compound 3]
Competion binding using 22 mSUCNR1 pKi [1]: 5.8 ± 0.1
cAMP mSUCNR1 pEC50 [2]: 6.58 ± 0.16

CC(C)(C)OC(=O)NCCCOc1ccc(-c2ccc(C(=O)N[C@@H](CC(=O)O)C(=O)O)o2)cc1 [Compound 8a, (5-(4-(3-((tert-Butoxycarbonyl)amino)propoxy)phenyl)furan-2-carbonyl)-L-aspartic acid]
cAMP mSUCNR1 pEC50 [2]: 6.25 ± 0.09

CC(C)(C)OC(=O)NCCCCOc1ccc(-c2ccc(C(=O)N[C@@H](CC(=O)O)C(=O)O)o2)cc1 [Compound 8b, (5-(4-(4-((tert-Butoxycarbonyl)amino)butoxy)phenyl)furan-2-carbonyl)-L-aspartic acid]
cAMP mSUCNR1 pEC50 [2]: 6.47 ± 0.18

CC(C)(C)OC(=O)NCCCCCOc1ccc(-c2ccc(C(=O)N[C@@H](CC(=O)O)C(=O)O)o2)cc1 [Compound 8c, (5-(4-((5-((tert-Butoxycarbonyl)amino)pentyl)oxy)phenyl)furan-2-carbonyl)-L-aspartic acid]
cAMP mSUCNR1 pEC50 [2]: 6.60 ± 0.16
fold decrease in potency on mSUCNR1 ([2]; relative to agonist scaffold 2): 2.5 fold

CC(C)(C)OC(=O)NCCCCCCOc1ccc(-c2ccc(C(=O)N[C@@H](CC(=O)O)C(=O)O)o2)cc1 [Compound 8d, (5-(4-((6-((tert-Butoxycarbonyl)amino)hexyl)oxy)phenyl)furan-2-carbonyl)-L-aspartic acid]
cAMP mSUCNR1 pEC50 [2]: 6.42 ± 0.11

NCCCOc1ccc(-c2ccc(C(=O)N[C@@H](CC(=O)O)C(=O)O)o2)cc1 [Compound 9a, (S)-3-(4-(5-((1,2-Dicarboxyethyl)carbamoyl)furan-2-yl)phenoxy)propan-1-aminium 2,2,2-trifluoroacetate]
cAMP mSUCNR1 pEC50 [2]: 7.10 ± 0.11

NCCCCOc1ccc(-c2ccc(C(=O)N[C@@H](CC(=O)O)C(=O)O)o2)cc1 [Compound 9b, (5-(4-(4-Aminobutoxy)phenyl)furan-2-carbonyl)-L-aspartic acid hydrochloride]
cAMP mSUCNR1 pEC50 [2]: 7.13 ± 0.06

NCCCCCOc1ccc(-c2ccc(C(=O)N[C@@H](CC(=O)O)C(=O)O)o2)cc1 [Compound 9c, (S)-5-(4-(5-((1,2-Dicarboxyethyl)carbamoyl)furan-2-yl)phenoxy)pentan-1-aminium 2,2,2-trifluoroacetate]
cAMP mSUCNR1 pEC50 [2]: 6.91 ± 0.09

NCCCCCCOc1ccc(-c2ccc(C(=O)N[C@@H](CC(=O)O)C(=O)O)o2)cc1 [Compound 9d, (S)-6-(4-(5-((1,2-Dicarboxyethyl)carbamoyl)furan-2-yl)phenoxy)hexan-1-aminium 2,2,2-trifluoroacetate]
Competion binding using 22 mSUCNR1 pKi [1]: 6.2 ± 0.1

CC(C)(C)OC(=O)NCCCOc1ccc(-c2cccc(C(=O)N[C@@H](CC(=O)O)C(=O)O)n2)cc1 [Compound 15a, (6-(4-(3-((tert-Butoxycarbonyl)amino)propoxy)phenyl)picolinoyl)-L-aspartic acid]
cAMP mSUCNR1 pEC50 [2]: 5.90 ± 0.08

CC(C)(C)OC(=O)NCCCCOc1ccc(-c2cccc(C(=O)N[C@@H](CC(=O)O)C(=O)O)n2)cc1 [Compound 15b, (6-(4-(4-((tert-Butoxycarbonyl)amino)butoxy)phenyl)picolinoyl)-L-aspartic acid]
cAMP mSUCNR1 pEC50 [2]: 5.97 ± 0.09

CC(C)(C)OC(=O)NCCCCCOc1ccc(-c2cccc(C(=O)N[C@@H](CC(=O)O)C(=O)O)n2)cc1 [Compound 15c, (6-(4-((5-((tert-Butoxycarbonyl)amino)pentyl)oxy)phenyl)picolinoyl)-L-aspartic acid]
cAMP mSUCNR1 pEC50 [2]: 5.68 ± 0.11

CC(C)(C)OC(=O)NCCCCCCOc1ccc(-c2cccc(C(=O)N[C@@H](CC(=O)O)C(=O)O)n2)cc1 [Compound 15d, (6-(4-((6-((tert-Butoxycarbonyl)amino)hexyl)oxy)phenyl)picolinoyl)-L-aspartic acid]
cAMP mSUCNR1 pEC50 [2]: 5.76 ± 0.07

CC(C)(C)OC(=O)NCCOCCOc1ccc(-c2cccc(C(=O)N[C@@H](CC(=O)O)C(=O)O)n2)cc1 [Compound 15e, (6-(4-(2-(2-((tert-Butoxycarbonyl)amino)ethoxy)ethoxy)phenyl)picolinoyl)-L-aspartic acid]
cAMP mSUCNR1 pEC50 [2]: 6.01 ± 0.18

CC(C)(C)OC(=O)NCCNCCCCCCOc1ccc(-c2ccc(C(=O)N[C@@H](CC(=O)O)C(=O)O)o2)cc1 [Compound 17, (S)-N-(2-((tert-Butoxycarbonyl)amino)ethyl)-6-(4-(5-((1,2-dicarboxyethyl)carbamoyl)furan-2-yl)phenoxy)hexan-1-aminium 2,2,2-trifluoroacetate]
cAMP mSUCNR1 pEC50 [2]: 7.40 ± 0.11

CNCCCCCCOc1ccc(-c2ccc(C(=O)N[C@@H](CC(=O)O)C(=O)O)o2)cc1 [Compound 20, (S)-6-(4-(5-((1,2-Dicarboxyethyl)carbamoyl)furan-2-yl)phenoxy)-N-methylhexan-1-aminium 2,2,2-trifluoroacetate]
cAMP mSUCNR1 pEC50 [2]: 7.35 ± 0.05

CN(C)CCCCCCOc1ccc(-c2ccc(C(=O)N[C@@H](CC(=O)O)C(=O)O)o2)cc1 [Compound 21, (S)-6-(4-(5-((1,2-Dicarboxyethyl)carbamoyl)furan-2-yl)phenoxy)-N,N-dimethylhexan-1-aminium 2,2,2-trifluoroacetate]
cAMP mSUCNR1 pEC50 [2]: 7.20 ± 0.02

O=C(O)Cc1ccccc1NC(=O)c1cccc(-c2ccc(Cl)cc2)c1 [Compound 32, 2-(2-(4′-Chloro-[1,1′-biphenyl]-3-carboxamido)phenyl)acetic acid]
Competion binding using 22 hSUCNR1 pKi [3]: 7.8 ± 0.3
Competion binding using 46 hSUCNR1 pKi [4]: 7.6 ± 0.1
Ki [5]: 251 nM
Ki [6]: 316 nM
fold lower affinity at hmSUCNR1 compared to hSUCNR1 ([6]; competition binding): ~10 fold
Competion binding using 22 mSUCNR1 pKi [1]: <4.5 ^d
cAMP hSUCNR1 pIC50 [7]: 6.31 ± 0.18

Cc1ccc(C(=O)Nc2ccccc2CC(=O)O)cc1-c1ccc(Cl)cc1 [Compound 34, 2-(2-(4′-Chloro-6-methyl-[1,1′-biphenyl]-3-carboxamido)phenyl)acetic acid]
fold increase in potency relative to 32 ([7]; hSUCNR1 cAMP): 3 fold
cAMP hSUCNR1 pIC50 [7]: 6.78 ± 0.01

Cc1cc(Cl)ccc1-c1cccc(C(=O)Nc2ccccc2CC(=O)O)c1 [Compound 35, 2-(2-(4′-Chloro-2′-methyl-[1,1′-biphenyl]-3-carboxamido)phenyl)acetic acid]
Competion binding using 22 mSUCNR1 pKi [1]: <4.5 ^d

CC(C)(C)OC(=O)NCCN1CCN(Cc2ccc(-c3cccc(C(=O)Nc4ccccc4CC(=O)O)c3)cc2)CC1 [Compound 43, 1-(2-((tert-Butoxycarbonyl)amino)ethyl)-4-((3′-((2-(carboxymethyl)phenyl)carbamoyl)-[1,1′-biphenyl]-4-yl)methyl)piperazin-1-ium 2,2,2-trifluoroacetate]
cAMP hSUCNR1 pIC50 [7]: 6.82 ± 0.02

Cc1cc(CN2CCN(C)CC2)ccc1-c1cccc(C(=O)Nc2ccccc2CC(=O)O)c1 [Compound 44, 4-((3′-((2-(Carboxymethyl)phenyl)carbamoyl)-2-methyl-[1,1′-biphenyl]-4-yl)methyl)-1-methylpiperazin-1-ium 2,2,2-trifluoroacetate]
Competion binding using 22 mSUCNR1 pKi [1]: <4.5 ^d

O=C(O)[C@H]1O[C@H]1C(=O)O [Compound 47, cis-epoxysuccinic acid]
Competion binding using 22 hSUCNR1 pKi [3]: 4.1 ± 0.1
Competion binding using 46 hSUCNR1 pKi [4]: 4.1 ± 0.3

O=C(O)CCc1cccc(Oc2ccc(Oc3cccc4cnccc34)cc2C(F)(F)F)c1 [Compound 48]
Competion binding using 22 hSUCNR1 pKi [3]: 5.9 ± 0.5
Ki [5]: > 31600 nM
Ki [6]: > 31600 nM
Competion binding using 22 mSUCNR1 pKi [1]: <4.5 ^d
